Measurements published in ChEMBL document CHEMBL1131815, “Derivatives of (R)-2-amino-5-methoxytetralin: antagonists and inverse agonists at the dopamine D2A receptor” (Bioorg Med Chem Lett, 1999).

Tests used:
D(2) dopamine receptor [1] = biological target: T1, D(2) dopamine receptor (Homo sapiens, UniProt P14416); assay: Displacement of [3H]raclopride from human dopamine D2A receptors expressed in LtK cells; assay type: cell-based
D(2) dopamine receptor [2] = biological target: T1, D(2) dopamine receptor; assay: Displacement of [3H]quinpirole from human dopamine D2A receptors expressed in LtK cells; assay type: cell-based
D(2) dopamine receptor [3] = biological target: T1, D(2) dopamine receptor

T1 sequence (P14416 whole entry): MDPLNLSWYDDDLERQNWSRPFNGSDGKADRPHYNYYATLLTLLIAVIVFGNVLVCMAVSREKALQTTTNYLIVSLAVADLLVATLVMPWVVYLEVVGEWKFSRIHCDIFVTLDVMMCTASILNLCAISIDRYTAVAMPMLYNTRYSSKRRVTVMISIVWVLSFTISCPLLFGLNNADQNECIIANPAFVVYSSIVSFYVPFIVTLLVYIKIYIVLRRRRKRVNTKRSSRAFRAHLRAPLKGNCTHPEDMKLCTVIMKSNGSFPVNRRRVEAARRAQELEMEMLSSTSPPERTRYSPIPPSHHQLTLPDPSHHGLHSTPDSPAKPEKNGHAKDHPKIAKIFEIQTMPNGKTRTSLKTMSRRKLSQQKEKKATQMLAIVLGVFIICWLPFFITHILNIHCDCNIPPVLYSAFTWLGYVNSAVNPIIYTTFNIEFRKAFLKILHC

| Structure (SMILES) | Ki (D(2) dopamine receptor [1]) [µM] | Ki (D(2) dopamine receptor [2]) [µM] | nH (D(2) dopamine receptor [3]) |
| --- | --- | --- | --- |
| COc1cccc2c1CC[C@@H](N(Cc1ccccc1)Cc1ccccc1)C2 | > 5 | > 5 | – |
| CCCN(CCC)[C@@H]1CCc2c(cccc2OC)C1 | 0.046 | 0.00635 | 1.06 |
| CCCN[C@@H]1CCc2c(cccc2OC)C1 | 0.114 | 0.0823 | 1.06 |
| CCCN(Cc1cccs1)[C@@H]1CCc2c(cccc2OC)C1 | 0.152 | 0.339 | 0.9 |
| COc1cccc2c1CC[C@@H](NCc1ccccc1)C2 | 1.01 | 1.31 | 0.83 |
| CCCN(Cc1ccc([N+](=O)[O-])cc1)[C@@H]1CCc2c(cccc2OC)C1 | 0.0592 | 0.215 | 0.9 |
| CCCN(Cc1ccc(OC)cc1)[C@@H]1CCc2c(cccc2OC)C1 | 0.022 | 0.0641 | 0.94 |
| CCCN(CCC)[C@@H]1CCc2c(F)cccc2C1 | – | – | 0.89 |
| CCCN(Cc1ccccc1)[C@@H]1CCc2c(cccc2OC)C1 | 0.0656 | 0.075 | 1.05 |
| CCCN(Cc1ccc(F)cc1)[C@@H]1CCc2c(cccc2OC)C1 | 0.0438 | 0.0697 | 0.9 |
| CCCN(Cc1ccco1)[C@@H]1CCc2c(cccc2OC)C1 | 0.125 | 0.118 | 0.83 |
| NCCc1ccc(O)c(O)c1 | – | – | 0.65 |
| CCCN(Cc1ccccc1)[C@@H]1CCc2c(F)cccc2C1 | – | – | 0.86 |
